Experimental data reported in patent US10125134B2 (Mirati Therapeutics, Inc., priority 2016, dated 2018).
Like-named read-outs stand apart in the source and are kept apart here.

Experiments:
[1] = molecular target: KRas G12C (Homo sapiens, UniProt P01116, C118S/C51S/C80L/G12C); assay: KRas G12C Modification Assay (LCMS detection of covalent adduct); format: binding; details: normalized percent of control; tested at 5 μM concentration for 3 hours
Procedure: A 10 μL aliquot of each protein solution was then transferred to a 384 well microtiter plate. Initial compound stocks were generated at fifty times their desired final assay concentration in DMSO.
Exemplary compounds of Formula (I) were diluted 25-fold into K-Ras Assay Buffer to a final of two times their final concentration. A 10 μL aliquot of each diluted compound solution was then added to each of the protein solutions in the microtiter plate to initiate reaction. […] At each time point, the reactions were quenched with 20 μL of a 25 mM acetic acid solution. […] Once all reactions were quenched, the plates were heat sealed and the samples were injected into a LC/MS system for data acquisition.
Samples were injected in their liquid phase onto a C-3 reverse phase column to remove assay buffer and prepare the samples for mass spectrometer. The proteins were eluted from the column using an acetonitrile gradient and fed directly into the mass analyzer. Initial raw data analysis took place in Agilent MassHunter software immediately post data acquisition.
Raw data analysis of the intact protein was exclusively a deconvolution of the multiple charge states of each protein in solution using a maximum entropy deconvolution provided in Mass Hunter. To minimize complexity, only the data over limited mass ranges were considered for analysis, with a minimum of one Dalton mass step intervals. The heights of all masses identified during raw data analysis were exported to be further analyzed in Spotfire® data analysis software.
Final data analysis was a multistep process in the Spotfire® data analysis software package. Briefly, each protein mass was calculated as a percent of the total signal of that sample, that percentage was then normalized to the percentage of signal of the protein in the absence of reactive compounds. Those normalized signals were reported as normalized percent of control (POC). […] Key: “A”≤25% POC; “B”>25% POC−≤50% POC; “C”>50% POC and ND=not determined.

[2] = system: NCI-H358 cells (express KRas G12C), Phospho-ERK; assay: Cellular inhibition of KRas G12C: Phospho-ERK in NCI-H358 cells; format: cell-based; details: pERK(Thr202/Tyr204) normalized with GAPDH, NCI-H358 cells, 3 hours, read-out: IC50
Procedure: The cellular inhibition of KRAs G12C by exemplary compounds of the present invention was determined by measuring the amount of a downstream marker of KRas activity, phosphorylated ERK (“Phospho-ERK”).
Cells were plated in poly-D-Lysine coated 96-well plates at a concentration of 50,000 cells/well and allowed to attach for 8-12 hours. Diluted compounds were then added at a final concentration of 0.5% DMSO. After 3 hours, the medium was removed, 150 μL of 4% formaldehyde was added and the plates were incubated for 20 minutes. The plates were washed with PBS, and permeabilized using 150 μL of ice cold 100% methanol for 10 minutes. Non-specific antibody binding to the plates was blocked using 100 μL Licor Blocking Buffer (Li-Cor Biotechnology, Lincoln Nebr.) for 1 hour at room temperature. Positive control samples and samples lacking cells were parallel processed with test samples as standards.
The amount Phospho-ERK was determined using an antibody specific for the phosphorylated form of ERK and compared to the amount of GAPDH. […] The plates were incubated for 2 hours at room temperature. The plates were washed with PBS+0.05% Tween 20.
Secondary antibodies used to visualize primary antibodies were added as follows: Anti-rabbit-680 diluted 1:1000 and Anti-mouse-800 diluted 1:1000 in Licor Block+0.05% Tween 20 and incubated for 1 hour at room temperature. The plates were washed with PBS+0.05% Tween 20. A 100 μL aliquot of PBS was added to each well and the plates were read on a LICOR AERIUS plate reader.
The pERK(Thr202/Tyr204) signal was normalized with the GAPDH signal and percent of DMSO control values were calculated. IC50 values were generated using a 4 parameter fit of the dose response curve. Key: “A”≥0.0001−≤1 μM; and “B”>1 μM.

Row | POC [1] | Structure (SMILES) | IC50 ([2]; Homo sapiens, NCI-H358, 3 h) | IC50 [2] | IC50 ([2]; Homo sapiens)
1 | B (“B”>25% POC−≤50% POC) | C=CC(=O)N1CCN(c2nc(O[C@@H](C)CN(C)C)nc3c2CCN(c2cc(O)cc4ccccc24)C3)CC1 [Example 8, (S)-1-(4-(2-((1-(dimethylamino)propan-2-yl)oxy)-7-(3-hydroxynaphthalen-1-yl)-5,6,7,8-tetrahydropyrido[3,4-d]pyrimidin-4-yl)piperazin-1-yl)prop-2-en-1-one] | > 1000 nM | – | –
2 | C (“C”>50% POC) | C=CC(=O)N1CCN(c2nc(O[C@@H](C)[C@@H]3CCCN3C)nc3c2CCN(c2cc(O)cc4ccccc24)C3)CC1 [Example 130, 1-(4-(7-(3-hydroxynaphthalen-1-yl)-2-((S)-1-((S)-1-methylpyrrolidin-2-yl)ethoxy)-5,6,7,8-tetrahydropyrido[3,4-d]pyrimidin-4-yl)piperazin-1-yl)prop-2-en-1-one] | 0.1 to 1000 nM | – | –
3 | A (“A”≤25% POC) | C=CC(=O)N1CCN(c2nc(OC[C@@H]3CCCN3C)nc3c2CCN(c2cccc4ccc(OC)cc24)C3)CC1CC#N (stereo partly drawn) [Example 288, 2-[4-[7-(7-methoxy-1-naphthyl)-2-[[(2S)-1-methylpyrrolidin-2-yl]methoxy]-6,8-dihydro-5H-pyrido[3,4-d]pyrimidin-4-yl]-1-prop-2-enoyl-piperazin-2-yl]acetonitrile] | – | > 1000 nM | –
4 | C (“C”>50% POC) | C=CC(=O)N1CCN(c2nc(OC[C@@H]3CCCN3CC)nc3c2CCN(c2cccc4ccccc24)C3)C[C@@H]1CC#N [Example 399, 2-((S)-1-acryloyl-4-(2-(((S)-1-ethylpyrrolidin-2-yl)methoxy)-7-(naphthalen-1-yl)-5,6,7,8-tetrahydropyrido[3,4-d]pyrimidin-4-yl)piperazin-2-yl)acetonitrile] | 0.1 to 1000 nM | – | –
5 | C (“C”>50% POC) | C=CC(=O)N1CCN(c2nc(OC[C@@H]3C[C@@H](O)CN3C)nc3c2CCN(c2cccc4ccccc24)C3)C[C@@H]1CC#N [Example 315, 2-[(2S)-4-[2-[[(2S,4R)-4-hydroxy-1-methyl-pyrrolidin-2-yl]methoxy]-7-(1-naphthyl)-6,8-dihydro-5H-pyrido[3,4-d]pyrimidin-4-yl]-1-prop-2-enoyl-piperazin-2-yl]acetonitrile] | 0.1 to 1000 nM | – | –
6 | C (“C”>50% POC) | C=CC(=O)N1CCN(c2nc(O[C@H]3CCCN(C)C3)nc3c2CCN(c2cc(O)cc4ccccc24)C3)CC1 [Example 66, (S)-1-(4-(7-(3-hydroxynaphthalen-1-yl)-2-((1-methylpiperidin-3-yl)oxy)-5,6,7,8-tetrahydropyrido[3,4-d]pyrimidin-4-yl)piperazin-1-yl)prop-2-en-1-one] | > 1000 nM | – | –
7 | C (“C”>50% POC) | C=CC(=O)N1CCN(c2nc(OC[C@@H]3CCCN3CCO)nc3c2CCN(c2cccc4ccccc24)C3)C[C@@H]1CC#N [Example 341, 2-((S)-1-acryloyl-4-(2-(((S)-1-(2-hydroxyethyl)pyrrolidin-2-yl)methoxy)-7-(naphthalen-1-yl)-5,6,7,8-tetrahydropyrido[3,4-d]pyrimidin-4-yl)piperazin-2-yl)acetonitrile] | 0.1 to 1000 nM | – | –
8 | C (“C”>50% POC) | C=CC(=O)N1CCN(c2nc(OC[C@@H]3CCCN3C)nc3c2CCN(c2cccc4cccn24)C3)C[C@@H]1CC#N [Example 440, 2-((S)-1-acryloyl-4-(7-(indolizin-5-yl)-2-(((S)-1-methylpyrrolidin-2-yl)methoxy)-5,6,7,8-tetrahydropyrido[3,4-d]pyrimidin-4-yl)piperazin-2-yl)acetonitrile] | 0.1 to 1000 nM | – | –
9 | C (“C”>50% POC) | C=CC(=O)N1CCN(c2nc(OCCN(C)CCOC)nc3c2CCN(c2cc(O)cc4ccccc24)C3)CC1 [Example 107, 1-(4-(7-(3-hydroxynaphthalen-1-yl)-2-(2-((2-methoxyethyl)(methyl)amino)ethoxy)-5,6,7,8-tetrahydropyrido[3,4-d]pyrimidin-4-yl)piperazin-1-yl)prop-2-en-1-one] | > 1000 nM | – | –
10 | C (“C”>50% POC) | C=CC(=O)N1CCN(c2nc(OCCCN3CCOCC3)nc3c2CCN(c2cc(O)cc4ccccc24)C3=O)CC1 [Example 121, 4-(4-acryloylpiperazin-1-yl)-7-(3-hydroxynaphthalen-1-yl)-2-(3-morpholinopropoxy)-6,7-dihydropyrido[3,4-d]pyrimidin-8(5H)-one] | – | – | > 1000 nM
11 | C (“C”>50% POC) | C=CC(=O)N1CCN(c2nc(OCC(CO)N(C)C)nc3c2CCN(c2cc(O)cc4ccccc24)C3)CC1 (stereo not shown) [Example 55, 1-(4-(2-(2-(dimethylamino)-3-hydroxypropoxy)-7-(3-hydroxynaphthalen-1-yl)-5,6,7,8-tetrahydropyrido[3,4-d]pyrimidin-4-yl)piperazin-1-yl)prop-2-en-1-one] | 0.1 to 1000 nM | – | –
12 | C (“C”>50% POC) | C=CC(=O)N1CCN(c2nc(OC[C@@H]3CCCN3C)nc3c2CCN(c2cncc4ccccc24)C3)CC1CC#N (stereo partly drawn) [Example 291, 2-[4-[7-(4-isoquinolyl)-2-[[(2S)-1-methylpyrrolidin-2-yl]methoxy]-6,8-dihydro-5H-pyrido[3,4-d]pyrimidin-4-yl]-1-prop-2-enoyl-piperazin-2-yl]acetonitrile] | – | 0.1 to 1000 nM | –
13 | C (“C”>50% POC) | C=CC(=O)N1CCN(c2nc(OC[C@H](O)CN3CCOCC3)nc3c2CCN(c2cc(O)cc4ccccc24)C3)CC1 (single isomer, unassigned) [Example 215] | > 1000 nM | – | –
14 | C (“C”>50% POC) | C=CC(=O)N1CCN(c2nc(OC[C@@H]3CCCN3C)nc3c2CCN(c2ccc(F)c4ccccc24)C3)CC1CC#N (stereo partly drawn) [Example 246, 2-[4-[7-(4-fluoro-1-naphthyl)-2-[[(2S)-1-methylpyrrolidin-2-yl]methoxy]-6,8-dihydro-5H-pyrido[3,4-d]pyrimidin-4-yl]-1-prop-2-enoyl-piperazin-2-yl]acetonitrile] | 0.1 to 1000 nM | – | –
15 | C (“C”>50% POC) | C=CC(=O)N1CCN(c2nc(OC[C@@H]3CCC(=O)N3)nc3c2CCN(c2cc(O)cc4ccccc24)C3)CC1 [Example 57, (S)-5-(((4-(4-acryloylpiperazin-1-yl)-7-(3-hydroxynaphthalen-1-yl)-5,6,7,8-tetrahydropyrido[3,4-d]pyrimidin-2-yl)oxy)methyl)pyrrolidin-2-one] | > 1000 nM | – | –

Row | Structure (SMILES) | POC [1] | IC50 ([2]; Homo sapiens, NCI-H358, 3 h) | IC50 [2] | IC50 ([2]; Homo sapiens)
16 | C=CC(=O)N1[C@@H]2CC[C@H]1CN(c1nc(OC(C)CN(C)C)nc3c1CCN(c1cc(O)cc4ccccc14)C3)C2 (stereo partly drawn) [Example 45, 1-((1R,5S)-3-(2-((1-(dimethylamino)propan-2-yl)oxy)-7-(3-hydroxynaphthalen-1-yl)-5,6,7,8-tetrahydropyrido[3,4-d]pyrimidin-4-yl)-3,8-diazabicyclo[3.2.1]octan-8-yl)prop-2-en-1-one] | A (“A”≤25% POC) | – | – | > 1000 nM
17 | C=CC(=O)N1CCN(c2nc(OC[C@@H]3CCCN3C)nc3c2CCN(c2c(C)c(O)cc4ccccc24)C3)CC1 [Example 175, (S)-1-(4-(7-(3-hydroxy-2-methylnaphthalen-1-yl)-2-((1-methylpyrrolidin-2-yl)methoxy)-5,6,7,8-tetrahydropyrido[3,4-d]pyrimidin-4-yl)piperazin-1-yl)prop-2-en-1-one] | C (“C”>50% POC) | – | – | 0.1 to 1000 nM
